# Assay results: publication PMC12304293, “Combatting virulent gut bacteria by inhibiting the biosynthesis of a two-component lanthipeptide toxin” (Nature Communications, 2025)
# Non-standard residues stand in square brackets, D forms with d. Residues, ends and D or L forms follow the SMILES beside them. *: point of attachment. boroGlu = O=C(O)CC[C@H](N*)B(O)O; Gly(cPr) = N[C@H](C(=O)O)C1CC1
# Assays:
# His6-CylA-27-412 [1] = molecular target: T1, His6-CylA-27-412 (Enterococcus faecalis, UniProt A0A2P6AWB8); experiment: FRET assay, initial rates of FRET peptide cleavage; type: biochemical; conditions: 762, 254, or 85 pM of inhibitor (substoichiometric; enzyme 20 nM)
# T1 sequence (A0A2P6AWB8 27-412): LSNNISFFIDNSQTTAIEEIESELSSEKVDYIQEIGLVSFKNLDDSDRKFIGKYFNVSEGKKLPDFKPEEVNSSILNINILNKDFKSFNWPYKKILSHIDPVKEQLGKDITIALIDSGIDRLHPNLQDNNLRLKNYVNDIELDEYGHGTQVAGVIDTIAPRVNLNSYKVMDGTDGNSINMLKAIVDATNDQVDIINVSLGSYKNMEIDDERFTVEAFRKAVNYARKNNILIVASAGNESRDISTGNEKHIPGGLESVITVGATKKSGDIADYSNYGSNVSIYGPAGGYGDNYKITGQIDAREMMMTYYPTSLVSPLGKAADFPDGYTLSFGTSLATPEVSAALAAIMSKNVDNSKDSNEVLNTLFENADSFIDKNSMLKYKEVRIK
# Experimental: A FRET assay was developed to directly detect the inhibition of His6-CylA-27-412 activity by inhibitor 9. Fmoc SPPS was used to prepare a FRET labeled substrate. The substrate recognition sequence and a portion of the N-terminus of unmodified CylLS were embedded in between N-terminal Asp(EDANS) and C-terminal Lys(DABCYL) residues (Fig. 5A).
# A Structure of the FRET substrate and its cleavage by CylA. Samples of FRET substrate (44 µM) in PBS (pH = 7.4) before and after treatment with His6-CylA-27-412 (200 nM) overnight at 37 °C. […] Points represent the mean. Error bars represent the standard of deviation and are centered at the mean. C The relationship between relative enzyme activity (vi/vo) and concentration of 9. […] The colored line represents the calculated fit function. Points represent the mean and error bars represent the standard of deviation centered at the mean. […] For (D) and (E) absorbance at 220 nm was monitored. […] Statistical significance was calculated using a one sample and one-sided t test. *P < 0.05, **P < 0.01. […]
# The emission intensity of EDANS was measured over a 4 h period using a BioTek Synergy H4 plate reader. The slope of the linear portion of the emission intensity as a function of time curve was calculated (vi), divided by the slope of an uninhibited control (vo), and the ratio (vi/vo) was plotted as function of total inhibitor concentration.
# His6-CylA-27-412 [2] = molecular target: T1, His6-CylA-27-412; experiment: Analytical size exclusion chromatography (pro-domain release); conditions: increasing inhibitor:CylA ratio
# Experimental: To gain more insight into this phenomenon, His6-CylA-27-412 that had undergone complete autolytic cleavage as determined by SDS-PAGE and that had been purified by size exclusion chromatography (SEC), was analyzed by analytical SEC (aSEC) in the presence of inhibitor 9. […] This assignment was supported by SDS-PAGE analysis of the eluted fractions (Supplementary Fig. 8). […] The SEC retention time data is inconsistent with CylA forming higher order oligomers, ruling out a DegP-like activation mechanism.
# Samples of His6-CylA-27-412 prepared as described in ‘Expression and purification of His6-CylA-27-412’ were diluted to a concentration of 50 μM and injected (20 μL injection volume) into an Agilent 1260 infinity analytical high-performance liquid chromatography system equipped with a Biozen™ 1.8 μm, 300 × 4.6 mm LC column pre-equilibriated with aSEC buffer (100 mM NaHPO4, 200 mM NaCl, pH = 7.4). Absorbance at 220 nm was monitored. A flow rate of 0.25 mL/min was used for all experiments. Retention time was correlated to protein size using a Gel Filtration Standard (Biorad) and samples of carbonic anhydrase isolated from bovine erythrocytes (Sigma Aldrich) and albumin isolated from bovine serum (Sigma Aldrich).
# [3] = type: in vitro ADME, Enterococcus faecalis; conditions: 100 µM, 37 °C, 20 h
# Experimental: To investigate the stability of 9 in the presence of E. faecalis, cell extracts treated with 9 were tested for inhibitory activity. […] Cultures that were treated with 100 µM of 9 at 37 °C for 20 h gave extracts that inhibited the activity of CylA in vitro. The inhibitory activity of these extracts was about 3-fold less than a sample of fresh 9.
# Similiarly, 9 was diluted to 100 µM in BHI that was inoculated with E. faecalis ATCC 29212 before incubating at 37 °C for 20 h. The overnight culture was flash frozen and lyophilized. The lyophilized samples were extracted with a volume of 90% methanol/10% water that was equal to the volume of the sample prior to lyophilization. The extract was assumed to have a concentration of 100 µM. […]
# Human Serum + 9 Human Serum
# Log(Concentration (µM)) Log(Concentration(µM))
# Supplementary Figure 19. The stability of inhibitor 9 in the pres ence of human serum or C+ E. faecalis. A ) C y l A i nhibition activity of an extract of human s erum treated with 9 (100 μM) for 3 h at 37 ̊C. The resulting solution was used to determine the remaining activity of the inhibitor in a […]
# CylA activity assay. […] This experiment was perform ed on three different samples of inhibitor (n = 3). […]
# (also on this page, place not known: determined. inhibition CylA These IC 50 presence serum This performed A) Non-linear fitting v i/vo IC 50. […]
structure (smiles),measurement,setting,value
CC(=O)NCC(=O)N[C@@H](CC(=O)O)C(=O)N[C@H](C(=O)N[C@@H](CCC(N)=O)C(=O)N[C@@H](C)C(=O)N[C@@H](CCC(=O)O)B(O)O)C1CC1 [Compound 9] (Ac-GD[Gly(cPr)]QA-boroGlu),rate of FRET peptide cleavage,His6-CylA-27-412 [1],increased significantly
same,"conversion of CylA-96-412°His6-27-95 to the 12.1 min peak (pro-domain release), aSEC",His6-CylA-27-412 [2],transition appeared complete once a stoichiometric equivalent of inhibitor was added
same,inhibitory activity of culture extracts less than a sample of fresh 9,[3],about 3 fold
same,stability in cultures of E. faecalis,[3],relatively good stability
